This note sets out measurements from patent publication US11077090B2, “Compounds and compositions and uses thereof” (Sunovion Pharmaceuticals Inc., priority 2016, dated 2021).

Read-outs that look alike come from different tables or passages of the source.

The experiment relates to compound-treated mice. In words: Neuropharmacological assay (SmartCube): behavioral activity signature and minimal effective dose. It is filed as in vivo. Particulars: for minimal effective dose: Mus musculus, ip, MED = dose having 50% or more total activity; for AD: ADHD (probability of activity signature) / AG: analgesic (probability of activity signature) / AX: anxiolytic (probability of activity signature) / CE: cognitive enhancer (probability of activity signature) / DP: anti-depressant (probability of activity signature) / MS: mood stabilizer (probability of activity signature) / PS: anti-psychotic (probability of activity signature) / SD: sedative hypnotic (probability of activity signature) / UN: uncharacterized CNS activity (probability of activity signature): i.p. 15 min before test, most efficacious dose(s). The method in brief: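 Video-recorded behavior is compared algorithmically against a reference-compound database, yielding class probabilities (best dose reported). Compounds given i.p. in NMP/PEG/propylene glycol 15 min pre-test at 3 doses; potency as MED, the dose (mpk, range usually 0.3–30) reaching ≥50% total activity.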

The mark [1] stands for this setting: read-out: Potency: minimal effective dose (MED), binned.
Where [2] appears, read: read-out: Potency: minimal effective dose (MED).

Broadly, the minimal effective dose is the smallest amount tested that counted as effective. Consider `Cl.N[C@H]1c2ccccc2CO[C@@H]1CF` (single isomer, unassigned) [Example 276, cis-3-(fluoromethyl)isochroman-4-amine hydrochloride], for which the “AD: ADHD (probability of activity signature)” value (“AD: ADHD” for short) is reported as “+ (LOQ ≤ + <5%)”, the “AG: analgesic (probability of activity signature)” value (“AG: analgesic” below) was “+ (LOQ ≤ + <5%)”, the “AX: anxiolytic (probability of activity signature)” value (“AX: anxiolytic” below) is “+ (LOQ ≤ + <5%)” and the “CE: cognitive enhancer (probability of activity signature)” value (“CE: cognitive enhancer” for short) is reported as “+ (LOQ ≤ + <5%)”. Moreover, the “DP: anti-depressant (probability of activity signature)” value (from here on “DP: anti-depressant”) is listed as “+ (LOQ ≤ + <5%)”, the “MS: mood stabilizer (probability of activity signature)” value (shortened to “MS: mood stabilizer”) was “++ (5% ≤ ++ <25%)”, the “PS: anti-psychotic (probability of activity signature)” value (“PS: anti-psychotic” below) was “+ (LOQ ≤ + <5%)” and the “SD: sedative hypnotic (probability of activity signature)” value (“SD: sedative hypnotic” for short) is on record as “++ (5% ≤ ++ <25%)”. The “UN: uncharacterized CNS activity (probability of activity signature)” value (“UN: uncharacterized CNS activity” for short) was “+ (LOQ ≤ + <5%)”. Under setting [1], the minimal effective dose is 3 to 10 mg/kg.
`Cl.N[C@H]1c2ccccc2CO[C@H]1CF` (relative stereo) [Example 275, cis-3-(fluoromethyl)isochroman-4-amine hydrochloride]: the “AD: ADHD” value is given as “+ (LOQ ≤ + <5%)”, the “AG: analgesic” value was “+ (LOQ ≤ + <5%)”, the “AX: anxiolytic” value is “+ (LOQ ≤ + <5%)” and the “CE: cognitive enhancer” value is “+ (LOQ ≤ + <5%)”. For the same compound, the “DP: anti-depressant” value is “+ (LOQ ≤ + <5%)”, the “MS: mood stabilizer” value is on record as “++ (5% ≤ ++ <25%)”, the “PS: anti-psychotic” value was “+ (LOQ ≤ + <5%)” and the “SD: sedative hypnotic” value was “+++ (25% ≤ +++ <50%)”. The “UN: uncharacterized CNS activity” value is listed as “++ (5% ≤ ++ <25%)”. Besides, under setting [1], the minimal effective dose fell in the range of 3 to 10 mg/kg.
On to `C[C@@H]1OCc2cc(F)ccc2[C@@H]1N.Cl` (single isomer, unassigned) [Example 212], for which the “AD: ADHD” value is listed as “+ (LOQ ≤ + <5%)”, the “AG: analgesic” value is “++ (5% ≤ ++ <25%)”, the “AX: anxiolytic” value was “++ (5% ≤ ++ <25%)” and the “CE: cognitive enhancer” value is given as “+ (LOQ ≤ + <5%)”. The “DP: anti-depressant” value was “+ (LOQ ≤ + <5%)”, the “MS: mood stabilizer” value was “+ (LOQ ≤ + <5%)”, the “PS: anti-psychotic” value is on record as “+ (LOQ ≤ + <5%)” and the “SD: sedative hypnotic” value is reported as “+ (LOQ ≤ + <5%)”. Moreover, the “UN: uncharacterized CNS activity” value was “++++ (50% ≤ ++++)”. The minimal effective dose under setting [1] was 10 to 30 mg/kg.
On to `Cc1cccc2c1[C@H](N)[C@H](C)OC2` (single isomer, unassigned) [Example 169], for which the “AD: ADHD” value is listed as “+ (LOQ ≤ + <5%)”, the “AG: analgesic” value is listed as “++ (5% ≤ ++ <25%)”, the “AX: anxiolytic” value is listed as “++ (5% ≤ ++ <25%)” and the “CE: cognitive enhancer” value was “++ (5% ≤ ++ <25%)”. Also, the “DP: anti-depressant” value is on record as “++ (5% ≤ ++ <25%)”, the “MS: mood stabilizer” value is on record as “+ (LOQ ≤ + <5%)”, the “PS: anti-psychotic” value is “++ (5% ≤ ++ <25%)” and the “SD: sedative hypnotic” value was “++ (5% ≤ ++ <25%)”. Further, the “UN: uncharacterized CNS activity” value is “++++ (50% ≤ ++++)”. Moreover, the minimal effective dose under setting [1] is less than 3 mg/kg.
Regarding `CC[C@@H]1OCc2ccc(F)cc2[C@@H]1N.Cl` [Example 201], the “AD: ADHD” value is given as “+ (LOQ ≤ + <5%)”, the “AG: analgesic” value is recorded as “+ (LOQ ≤ + <5%)”, the “AX: anxiolytic” value is recorded as “++ (5% ≤ ++ <25%)” and the “CE: cognitive enhancer” value is on record as “++ (5% ≤ ++ <25%)”. Further, the “DP: anti-depressant” value is “+ (LOQ ≤ + <5%)”, the “MS: mood stabilizer” value is “+ (LOQ ≤ + <5%)”, the “PS: anti-psychotic” value is listed as “++ (5% ≤ ++ <25%)” and the “SD: sedative hypnotic” value is given as “+ (LOQ ≤ + <5%)”. In addition, the “UN: uncharacterized CNS activity” value is “++++ (50% ≤ ++++)”. Moreover, the minimal effective dose under setting [1] lay within 3 to 10 mg/kg.
`Cc1ccc2c(c1C)[C@H](N)[C@H](C)OC2.Cl` [Example 78]: the “AD: ADHD” value is “+ (LOQ ≤ + <5%)”, the “AG: analgesic” value is “++ (5% ≤ ++ <25%)”, the “AX: anxiolytic” value is “++ (5% ≤ ++ <25%)” and the “CE: cognitive enhancer” value is reported as “++ (5% ≤ ++ <25%)”. Further, the “DP: anti-depressant” value is “++ (5% ≤ ++ <25%)”, the “MS: mood stabilizer” value is recorded as “+ (LOQ ≤ + <5%)”, the “PS: anti-psychotic” value is “+++ (25% ≤ +++ <50%)” and the “SD: sedative hypnotic” value is “+ (LOQ ≤ + <5%)”. Also, the “UN: uncharacterized CNS activity” value was “++++ (50% ≤ ++++)”. The minimal effective dose under setting [2] fell in the range of 3 to 10 mg/kg.
As to `C[C@H]1OC[C@@H](N)c2cc(Cl)ccc21.Cl` [Example 203], the “AD: ADHD” value is “+ (LOQ ≤ + <5%)”, the “AG: analgesic” value is on record as “++ (5% ≤ ++ <25%)”, the “AX: anxiolytic” value is “++ (5% ≤ ++ <25%)” and the “CE: cognitive enhancer” value is given as “++ (5% ≤ ++ <25%)”. In addition, the “DP: anti-depressant” value is “++ (5% ≤ ++ <25%)”, the “MS: mood stabilizer” value is reported as “+ (LOQ ≤ + <5%)”, the “PS: anti-psychotic” value was “+++ (25% ≤ +++ <50%)” and the “SD: sedative hypnotic” value is given as “++ (5% ≤ ++ <25%)”. Besides, the “UN: uncharacterized CNS activity” value was “++++ (50% ≤ ++++)”. The minimal effective dose under setting [1] was 3 to 10 mg/kg.
Take `Cc1cc(C)c2c(c1)C(N)COC2.Cl` (stereo not drawn) [Example 46, 6,8-Dimethylisochroman-4-amine hydrochloride]: the “AD: ADHD” value was “+ (LOQ ≤ + <5%)”, the “AG: analgesic” value is given as “++ (5% ≤ ++ <25%)”, the “AX: anxiolytic” value is on record as “++ (5% ≤ ++ <25%)” and the “CE: cognitive enhancer” value is reported as “++ (5% ≤ ++ <25%)”. Further, the “DP: anti-depressant” value is given as “+ (LOQ ≤ + <5%)”, the “MS: mood stabilizer” value was “+ (LOQ ≤ + <5%)”, the “PS: anti-psychotic” value is reported as “+ (LOQ ≤ + <5%)” and the “SD: sedative hypnotic” value is on record as “++ (5% ≤ ++ <25%)”. Further, the “UN: uncharacterized CNS activity” value is “++++ (50% ≤ ++++)”. Moreover, the minimal effective dose under setting [2] was less than 3 mg/kg.
As to `Cc1ccc2c(c1)[C@@H](N)[C@H](C)OC2` [Example 156], the “AD: ADHD” value is listed as “+ (LOQ ≤ + <5%)”, the “AG: analgesic” value is “++ (5% ≤ ++ <25%)”, the “AX: anxiolytic” value was “++ (5% ≤ ++ <25%)” and the “CE: cognitive enhancer” value is “++ (5% ≤ ++ <25%)”. For the same compound, the “DP: anti-depressant” value is listed as “+ (LOQ ≤ + <5%)”, the “MS: mood stabilizer” value is on record as “+ (LOQ ≤ + <5%)”, the “PS: anti-psychotic” value is “+ (LOQ ≤ + <5%)” and the “SD: sedative hypnotic” value is reported as “+ (LOQ ≤ + <5%)”. Besides, the “UN: uncharacterized CNS activity” value is on record as “+++ (25% ≤ +++ <50%)”. Also, the minimal effective dose under setting [2] was in the range of 3 to 10 mg/kg.
In the case of `CC(C)(C)c1ccc2c(c1)C(N)COC2.Cl` (stereo not drawn) [Example 11], the “AD: ADHD” value is recorded as “+ (LOQ ≤ + <5%)”, the “AG: analgesic” value is listed as “+ (LOQ ≤ + <5%)”, the “AX: anxiolytic” value was “+ (LOQ ≤ + <5%)” and the “CE: cognitive enhancer” value is recorded as “++ (5% ≤ ++ <25%)”. Further, the “DP: anti-depressant” value was “++ (5% ≤ ++ <25%)”, the “MS: mood stabilizer” value is “+ (LOQ ≤ + <5%)”, the “PS: anti-psychotic” value is “+ (LOQ ≤ + <5%)” and the “SD: sedative hypnotic” value is recorded as “++ (5% ≤ ++ <25%)”. Moreover, the “UN: uncharacterized CNS activity” value is listed as “+ (LOQ ≤ + <5%)”. Besides, under setting [2], the minimal effective dose is 10 to 30 mg/kg.
On to `Cc1ccc2c(c1)[C@@H](N)CCOC2` (single isomer, unassigned) [Example 116], for which the “AD: ADHD” value is given as “+ (LOQ ≤ + <5%)”, the “AG: analgesic” value is “++ (5% ≤ ++ <25%)”, the “AX: anxiolytic” value is “++ (5% ≤ ++ <25%)” and the “CE: cognitive enhancer” value is reported as “++ (5% ≤ ++ <25%)”. Besides, the “DP: anti-depressant” value is “++ (5% ≤ ++ <25%)”, the “MS: mood stabilizer” value is reported as “+ (LOQ ≤ + <5%)”, the “PS: anti-psychotic” value is on record as “++ (5% ≤ ++ <25%)” and the “SD: sedative hypnotic” value is recorded as “+++ (25% ≤ +++ <50%)”. The “UN: uncharacterized CNS activity” value was “+++ (25% ≤ +++ <50%)”. In addition, the minimal effective dose under setting [2] lay within 3 to 10 mg/kg.
`C[C@@H]1OCc2ccccc2[C@@H]1N.Cl` (relative stereo) [Example 72, cis-3-methylisochroman-4-amine hydrochloride]: the “AD: ADHD” value was “+ (LOQ ≤ + <5%)”, the “AG: analgesic” value is “++ (5% ≤ ++ <25%)”, the “AX: anxiolytic” value was “++ (5% ≤ ++ <25%)” and the “CE: cognitive enhancer” value is “++ (5% ≤ ++ <25%)”. In addition, the “DP: anti-depressant” value was “++ (5% ≤ ++ <25%)”, the “MS: mood stabilizer” value is listed as “+ (LOQ ≤ + <5%)”, the “PS: anti-psychotic” value was “++ (5% ≤ ++ <25%)” and the “SD: sedative hypnotic” value is “++ (5% ≤ ++ <25%)”. The “UN: uncharacterized CNS activity” value is on record as “+++ (25% ≤ +++ <50%)”. For the same compound, under setting [2], the minimal effective dose lay in the range of 3 to 10 mg/kg.
